Experimental data: patent publication US20250205342A1, “IRAK DEGRADERS AND USES THEREOF” (Kymera Therapeutics, Inc., priority 2022, published 2025)

Experiments:
[1] = molecular target: T1, IRAK4 (Homo sapiens, UniProt Q9NWZ3); assay: hPBMC IRAK4 degradation flow assay (monocytes); type: cell-based; set-up: endogenous in cells; host or cells: human PBMCs (monocytes, CD14 positive gate); settings: CD14 positive monocytes, 20 h, read-out: hPBMC monocyte DC50 at 20 h
T1 sequence (Q9NWZ3 1-460): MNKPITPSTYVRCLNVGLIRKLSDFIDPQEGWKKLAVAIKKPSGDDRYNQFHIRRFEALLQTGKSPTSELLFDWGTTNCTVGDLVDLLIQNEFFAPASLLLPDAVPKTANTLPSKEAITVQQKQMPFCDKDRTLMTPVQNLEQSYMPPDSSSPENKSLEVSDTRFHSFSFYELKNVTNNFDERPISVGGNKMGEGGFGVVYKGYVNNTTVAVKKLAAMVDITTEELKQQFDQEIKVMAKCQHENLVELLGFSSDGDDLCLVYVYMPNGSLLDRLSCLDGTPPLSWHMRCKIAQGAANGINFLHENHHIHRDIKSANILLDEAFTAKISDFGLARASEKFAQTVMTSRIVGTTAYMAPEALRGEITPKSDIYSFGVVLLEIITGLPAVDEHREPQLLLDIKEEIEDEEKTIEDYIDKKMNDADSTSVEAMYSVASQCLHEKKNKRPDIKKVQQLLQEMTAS
Method: In the hPBMC IRAK4 degradation flow assay, frozen PBMCs were thawed into RPMI with 10% FBS and allowed to recover. On the same day as thawed, PBMCs were plated in 96 well plate, 90 μL per well. Compound plates were prepared and a 10 point, 5-fold dilution was performed with a final DMSO concentration of 0.1%. Compound 10 μL per well was added, sealed and incubated at 37° C., 5% CO2 for 20 hours (for 4 hour treatment, compounds were prepared and added the following day). Following the treatment incubation period (day 1), 1.6% PFA was added to PBMC plate and placed on plate shaker for 30 seconds and incubated for 10 mins at room temperature. Cells were spun down and washed two times with PBS/0.5% BSA, aspirated to pellet and placed into −80° C. freezer until further processing for flow. On the flow run day, PBMC plates were thawed and samples were transferred to PCR plates. The pre-perm staining cocktail (CD3 Ax488/CD8 BUV805/CD14 BUV395/CD16/56 BV711/CD19 BV785) was added to samples and incubated for 30 minutes at room temperature. Samples were washed two times and permeabilized with methanol for 10 minutes at 4° C. Samples were washed two times and the post-perm staining cocktail (CD4 PE/IRAK4 Ax647 BD #560315) was added and incubated for 30 minutes at room temperature. Samples were washed two times with PBS/BSA and run on a BD LSRFortessa. Mononuclear cells are gated by SSCH/FSCH and single cells. Monocytes are then gated through CD14 positive gate and lymphocytes are gated through CD14 negative gate. To determine absolute DC50 and max degradation values, MFI values were normalized to DMSO max and 20 hour 10 µM min control. Twenty hour dose curves were calculated using a 4 parameter logistic regression curve fit, no constraints (Top doses were removed if hook effects were observed and the bottom was constrained to 0).
(§1) IRAK4 MSD degradation in OCI-LY10 results at 4 and 24 hrs and hPBMC at 20 hrs for compounds of the invention are presented in Table 3. The letter codes for IRAK4 DC50 include: A (<0.1 μM), B (0.1-1.0 μM), C(>1.0-10.0 μM), D (>10.0 μM or not determined).

[2] = molecular target: T1, IRAK4; assay: IRAK4 degradation in OCI-LY10 (MSD, Meso Scale Discovery); type: cell-based; set-up: endogenous in cells; host or cells: OCI-LY10; settings: OCI-LY10 cells, 24 h
Method: Degradation of IRAK4 in OCI-LY10 was quantitatively measured using Meso Scale Discovery technology. OCI-LY10 cells were seeded in 96-well plates (Corning 3799) with a density of 300,000 cells per well in 100 μL fresh media. Compounds were then added to the assay plates with a final top concentration of 1 to 10 μM in a 1:3 dilution series with total of 8 doses. The assay plates were then incubated for 4 to 24 hours at 37° C. under 5% CO2. The assay plates were then centrifuged for 5 minutes and the cell pellets were treated with 100 μL/well RIPA lysis buffer (Boston BioProducts BP-115D) with proteinase inhibitors. To prepare MSD assay plates (Meso Scale Discovery Catalog number L15XA-3), the plates were coated with 2 ug/mL capture antibody (mouse Anti-IRAK4 antibody [2H9], ab119942) in PBS, at 40 μL/well. The plates were then incubated overnight at […], washed 3 times with 150 μL/well TBST buffer (Cell Signaling Technology, Catalog number 9997S) and blocked with 150 μL/well blocking buffer (Meso Scale Discovery Catalog number R^93BA-4). Cell lysates were then added to MSD assay plates and the plates were incubated at room temperature for 1 hour. The plates were then washed 3 times with 150 μL/well TBST buffer and 25 μL/well primary detection antibody (rabbit Anti-IRAK4 antibody [Y279], from Abcam. Catalog number ab32511, 1 μg/mL). The assay plates were then incubated at room temperature for 1 hour, washed 3 times with 150 μL/well TBST buffer and 25 μL/well secondary detection antibody, SULFO-TAG anti-rabbit antibody were added (anti-rabbit antibody from Meso Scale Discovery, Catalog number R^32AB-1, 1 μg/mL). The assay plates were then incubated at room temperature for 1 hour, washed 3 times with 150 μL/well TBST buffer, and 150 μL/well MSD reading buffer (Meso Scale Discovery catalog number R^92TC-2) was added. The plates were then analyzed by a MSD reader (Meso Scale Discovery, Model Quick Plex SQ 120). The data was then analyzed by software Prism 7.0 from GraphPad and the dose-depended IRAK4 degradation were fit using a three-parameter logistic equation to calculate DC50.
as §1

| Structure (SMILES) | DC50 [1] | DC50 [2] |
| --- | --- | --- |
| CC(C)(O)c1cc2nn([C@H]3CC[C@H](CNCCCCCCCCCc4cccc5c(-c6cccc(C(=O)Nc7ccc(=O)n(CC(=O)O)c7)c6)cncc45)CC3)cc2cc1NC(=O)c1cccc(C(F)(F)F)n1 [Compound I-50] | > 10 µM | > 10 µM |
| CC(C)(O)c1cc2nn([C@H]3CC[C@H](CNCCCCCCc4cccc5c(-c6cccc(C(=O)Nc7ccc(=O)n(CC(=O)O)c7)c6)cncc45)CC3)cc2cc1NC(=O)c1cccc(C(F)(F)F)n1 [Compound I-51] | > 10 µM | > 10 µM |
| CC(C)(O)c1cc2nn([C@H]3CC[C@H](CNCCCCCCc4ccc5c(-c6cccc(C(=O)Nc7ccc(=O)n(CC(=O)O)c7)c6)cncc5c4)CC3)cc2cc1NC(=O)c1cccc(C(F)(F)F)n1 [Compound I-52] | > 10 µM | > 10 µM |
| CC(C)(O)c1cc2nn([C@H]3CC[C@H](CNCCCCCCCCCc4ccc5c(-c6cccc(C(=O)Nc7ccc(=O)n(CC(=O)O)c7)c6)cncc5c4)CC3)cc2cc1NC(=O)c1cccc(C(F)(F)F)n1 [Compound I-53] | > 10 µM | > 10 µM |
| COC(=O)Cn1cc(NC(=O)c2cccc(-c3cncc4c(CCCCCCCCCNC[C@H]5CC[C@H](n6cc7cc(NC(=O)c8cccc(C(F)(F)F)n8)c(C(C)(C)O)cc7n6)CC5)cccc34)c2)ccc1=O [Compound I-54] | 1 to 10 µM | 1 to 10 µM |
| COC(=O)Cn1cc(NC(=O)c2cccc(-c3cncc4cc(CCCCCCCCCNC[C@H]5CC[C@H](n6cc7cc(NC(=O)c8cccc(C(F)(F)F)n8)c(C(C)(C)O)cc7n6)CC5)ccc34)c2)ccc1=O [Compound I-55] | > 10 µM | > 10 µM |
| COC(=O)Cn1cc(NC(=O)c2cccc(-c3cncc4c(CCCCCCNC[C@H]5CC[C@H](n6cc7cc(NC(=O)c8cccc(C(F)(F)F)n8)c(C(C)(C)O)cc7n6)CC5)cccc34)c2)ccc1=O [Compound I-56] | > 10 µM | > 10 µM |
| COC(=O)Cn1cc(NC(=O)c2cccc(-c3cncc4cc(CCCCCCNC[C@H]5CC[C@H](n6cc7cc(NC(=O)c8cccc(C(F)(F)F)n8)c(C(C)(C)O)cc7n6)CC5)ccc34)c2)ccc1=O [Compound I-57] | 1 to 10 µM | 1 to 10 µM |
| CC(C)(O)c1cc2nn([C@H]3CC[C@H](CNCCCCCCCCCC4=CC(c5cccnc5)CC(C(=O)Nc5ccc(=O)n(CC(=O)O)c5)=C4)CC3)cc2cc1NC(=O)c1cccc(C(F)(F)F)n1 (stereo partly shown) [Compound I-60] | > 10 µM | > 10 µM |
| COc1cc(-c2ccc(F)c(CCCCCCCCCNC[C@H]3CC[C@H](n4cc5cc(NC(=O)c6cccc(C(F)(F)F)n6)c(C(C)(C)O)cc5n4)CC3)c2)ccc1C(=O)Nc1ccc(=O)n(CC(=O)O)c1 [Compound I-63] | > 10 µM | > 10 µM |

Further lines, results first:

| DC50 [1] | DC50 [2] | Structure (SMILES) |
| --- | --- | --- |
| < 0.1 µM | > 10 µM | CCOC(=O)Cn1cc(NC(=O)[C@H]2CCCN(c3cncc(CCCCCCNC[C@H]4CC[C@H](n5cc6cc(NC(=O)c7cccc(C(F)(F)F)n7)c(OC)cc6n5)CC4)c3)C2)ccc1=O [Compound I-42] |
| 1 to 10 µM | > 10 µM | CCOC(=O)Cn1cc(NC(=O)[C@H]2CCCN(c3cncc(OCCOCCOCCOCCOCCNC[C@H]4CC[C@H](n5cc6cc(NC(=O)c7cccc(C(F)(F)F)c7)c(OC)cc6n5)CC4)c3)C2)ccc1=O [Compound I-43] |
| > 10 µM | > 10 µM | O=C(O)Cn1cc(NC(=O)[C@H]2CCCN(c3cncc(OCCOCCOCCNC[C@H]4CC[C@H](n5cc(NC(=O)c6cnn7ccc(N8C[C@H]9C[C@@H]8CO9)nc67)c(C(F)F)n5)CC4)c3)C2)ccc1=O [Compound I-44] |
| 1 to 10 µM | > 10 µM | CCOC(=O)Cn1cc(NC(=O)[C@H]2CCCN(c3cncc(OCCOCCOCCNC[C@H]4CC[C@H](n5cc(NC(=O)c6cnn7ccc(N8C[C@H]9C[C@@H]8CO9)nc67)c(C(F)F)n5)CC4)c3)C2)ccc1=O [Compound I-45] |
| > 10 µM | > 10 µM | O=C(O)Cn1cc(NC(=O)[C@H]2CCCN(c3cncc(OCCCCNC[C@H]4CC[C@H](n5cc(NC(=O)c6cnn7ccc(N8C[C@H]9C[C@@H]8CO9)nc67)c(C(F)F)n5)CC4)c3)C2)ccc1=O [Compound I-46] |
| > 10 µM | > 10 µM | CCOC(=O)Cn1cc(NC(=O)[C@H]2CCCN(c3cncc(OCCOCCOCCOCCOCCNC[C@H]4CC[C@H](n5cc(NC(=O)c6cnn7ccc(N8C[C@H]9C[C@@H]8CO9)nc67)c(C(F)F)n5)CC4)c3)C2)ccc1=O [Compound I-47] |
| 1 to 10 µM | > 10 µM | CCOC(=O)Cn1cc(NC(=O)[C@H]2CCCN(c3cncc(OCCNC[C@H]4CC[C@H](n5cc(NC(=O)c6cnn7ccc(N8C[C@H]9C[C@@H]8CO9)nc67)c(C(F)F)n5)CC4)c3)C2)ccc1=O [Compound I-48] |
| 0.1 to 1 µM | 0.1 to 1 µM | COC(=O)Cn1cc(NC(=O)c2cccc(-c3cncc(CCCCCCCCCNC[C@H]4CC[C@H](n5cc6cc(NC(=O)c7cccc(C(F)(F)F)n7)c(C(C)(C)O)cc6n5)CC4)c3)c2)ccc1=O [Compound I-49] |
| > 10 µM | > 10 µM | CC(C)(O)c1cc2nn([C@H]3CC[C@H](CNCCCCCCn4ccc5c(C(=O)Nc6ccc(=O)n(CC(=O)O)c6)cccc54)CC3)cc2cc1NC(=O)c1cccc(C(F)(F)F)n1 [Compound I-58] |
| > 10 µM | > 10 µM | O=C(O)Cn1cc(NC(=O)c2cccc3c2ccn3CCCCCCNC[C@H]2CC[C@H](n3cc(NC(=O)c4cnn5ccc(N6C[C@H]7C[C@@H]6CO7)nc45)c(C(F)F)n3)CC2)ccc1=O [Compound I-59] |
| 1 to 10 µM | > 10 µM | CCOC(=O)Cn1cc(NC(=O)c2cccc3c2ccn3CCCCCCNC[C@H]2CC[C@H](n3cc(NC(=O)c4cnn5ccc(N6C[C@H]7C[C@@H]6CO7)nc45)c(C(F)F)n3)CC2)ccc1=O [Compound I-61] |
| > 10 µM | > 10 µM | COc1cc(-c2ccc(CCCCCCCCCNC[C@H]3CC[C@H](n4cc(NC(=O)c5cnn6ccc(N7C[C@H]8C[C@@H]7CO8)nc56)c(C(F)F)n4)CC3)cc2)ccc1C(=O)Nc1ccc(=O)n(CC(=O)O)c1 [Compound I-62] |
| > 10 µM | 1 to 10 µM | CCOC(=O)Cn1cc(NC(=O)c2ccc(-c3ccc(F)c(CCCCCCCCCNC[C@H]4CC[C@H](n5cc6cc(NC(=O)c7cccc(C(F)(F)F)n7)c(C(C)(C)O)cc6n5)CC4)c3)cc2OC)ccc1=O [Compound I-64] |
